We go through 1 compound from patent publication US5534498A, “Trypsin inhibitors” (Corvas International, Inc., priority 1993, dated 1996).

Residues, ends and D or L forms follow the SMILES beside them. *: point of attachment. Boc = CC(C)(C)OC(=O)*

Common to all, as to assay type: biochemical
Assay [1] has as its target bovine and human pancreatic trypsin. Put plainly: Potency: determination of inhibitor constant Ki against trypsin (S-2222 substrate, Dixon plot). To be noted: 37° C., TBS pH 7.4, 15 min preincubation, read-out: Ki For Peptide Aldehydes Against Trypsin. The procedure: The potency and specificity of the compounds of the present invention are determined by in vitro assay methods well known in the art. […] Specifically, the inhibitor constant, Ki, of the compounds can be determined by the method of Dixon, Biochem. J. 55:170 (1953). The specificity is assessed by determination of the concentration, IC50, of compound required to give 50% inhibition of the enzymatic activity of the coagulation enzymes, kallikrein, factor XIa, factor VIIa, factor Xa, thrombin; the fibrinolysis enzymes, plasmin, tissue plasminogen activator (tPA), and urokinase (UK), and the anticoagulation enzyme, protein C. Specificity is found when the concentration of compound giving 50% inhibition of trypsin is low relative to the concentration required to give like inhibition of the other enzymes.
Enzyme activity was determined using as substrate S-2222 [N-benzoyl-L-isoleucyl-L-glutamyl-glycyl-L-arginine-p-nitroanilide hydrochloride where glutamyl side chain is 50% carboxylic acid and 50% methyl ester], purchased from Kabi Diagnostica. The substrate was made up in deionized water prior to use.
A 96-well microtiter plate was prepared for use in the assay by incubating each well with 300 μL of 1% bovine serum albumin (in deionized water) for 30 minutes at 37° C., and washing three times with deionized water.
To each well was added 50 μL TBS (0.1M Tris, 0.14M NaCl, pH 7.4), 50 μL 2.5 nM trypsin and 50 μL peptide aldehyde in TBS or TBS alone. After incubating for 15 minutes at 37° C., 50 μL of S-2222 (at 37° C.) at a specified concentration was added to each well. After mixing, the rate of substramte turnover at 37° C. was measured for 30 minutes at 405 nm (generation of p-nitroaniline). The initial S-2222 concentrations in the assay mixture were 0.45, 0.23, 0.11, 0.056, and 0.028 mM.
Ki was determined graphically using a Dixon plot, as described in Dixon, Biochem. J. 55:170 (1953).

Assay [2] has as its target T1, human kallekrein (Homo sapiens, UniProt P03952).
T1 construct: 50 μL of 4 to 9 nM human kallekrein
The assay is described as follows: Kallikrein assay (S-2302 substrate). On the procedure: (§1) The specificity of the peptide aldehydes (8 through 12) was determined in vitro by measurement of their IC50 against other enzymes involved in hemostasis. A specific concentration of enzyme and its substrate were challenged with varying concentrations of inhibitor. […] Specific assay procedures used are presented below.
(§2) 96-well microtiter plates were prepared for use in these assays by incubating each well with 300 μL 1% bovine serum albumin (in deionized water) for 30 minutes at 37° C., then washing three times with deionized water.
(§3) The substrate was made up in deionized water prior to use.

Assay [3] addresses T2, Factor VIIa:rTF complex (Homo sapiens, UniProt P08709).
T2 construct: 2.5 ml 400 nMhuman Factor VIIa
Put plainly: Factor VIIa assay (S-2288 substrate). On the procedure: (§4) The specificity of the peptide aldehydes (8 through 12) was determined in vitro by measurement of their IC50 against other enzymes involved in hemostasis. A specific concentration of enzyme and its substrate were challenged with varying concentrations of inhibitor. IC50 is that concentration of inhibitor giving 50% inhibition of substrate turnover, under the assay conditions. Specific assay procedures used are presented below.
as §2
Enzyme activity was determined using as substrate, S-2288 [D-isoleucyl-L-prolyl-L-arginine-p-nitroanilide dihydrochloride], purchased from Kabi Diagnostica. The substrate was made up in deionized water prior to use.
Both solutions were then incubated for 30 minutes at room temperature before use in the assay.
The assay was run by combining in appropriate wells 50 μL inhibitor in TBS or TBS alone and 100 μL of Factor VIIa:rTF complex or background control, incubating this mixture for 30 minutes at room temperature, adding 50 μL of 2 mM S-2288, incubating for an additional 30 to 60 minutes at room temperature, then reading the absorbance of the wells at 405 nm on a microtiter plate reader set with background substraction at 650 nm.

The target in assay [4] is T3, human urokinase (Homo sapiens, UniProt P00749).
T3 construct: 50 μL of 270 U/mL human urokinase
The assay is described as follows: Urokinase assay (S-2444 substrate). On the procedure:
as §4, §2
Enzyme activity was determined using as substrate S-2444 [L-pyroglutamyl-L-glycyl-L-arginine-p-nitroanilide hydrochloride], purchased from Kabi Diagnostica. The substrate was made up in deionized water prior to use.
The assay was run by combining in appropriate wells 50 μL inhibitor in TBS or TBS alone and 50 μL of 270 U/mL human urokinase (or TBS as background control) and 50 μL TBS, incubating this mixture for 30 minutes at room temperature, adding 50 μL 1 mM S-2444, incubating for an additional 30 minutes at room temperature, then reading the absorbance of the wells at 405 nm on a microtiter plate reader set with background substraction at 650 nm.

In assay [5] the target is recombinant tissue plasminogen activator (Homo sapiens, UniProt P00750). The assay is described as follows: Tissue plasminogen activator assay (S-2288 substrate). The procedure: as §1, §2, §3
Assay [6] addresses plasmin (Homo sapiens, UniProt P00747). The assay is described as follows: Plasmin assay (S-2251 substrate). More on the design: 50 μL 25 nM human plasmin. The procedure:
as §1, §2, §3

Assay [7] addresses T4, bovine thrombin (Bos taurus, UniProt P00735).
T4 construct: 50 μL 20 nM bovine thrombin
Put plainly: Thrombin assay (S-2238 substrate). The procedure:
as §4, §2
Enzyme activity was determined using as substrate, S-2238 [D-phenylalanyl-L-pipecolyl-L-arginine-p-nitroanilide dihydrochloride], purchased from Kabi Diagnostica. The substrate was made up in deionized water prior to use.
The assay was run by combining in appropriate wells 50 μL TBS and 50 μL inhibitor in TBS or TBS alone and 50 μL 20 nM bovine thrombin (or TBS as background control), incubating this mixture for 30 minutes at room temperature, adding 50 μL 1 mM S-2238, incubating for an additional 30 minutes at room temperature, then reading the absorbance of the wells at 405 nm on a microtiter plate reader set with background substraction at 650 nm.

Assay [8] has as its target T5, human Factor XIa (Homo sapiens, UniProt P03951).
T5 construct: 50 μL of 5 nM human Factor XIa
The assay is described as follows: Factor XIa assay (S-2366 substrate). The procedure:
as §1, §2, §3

Setting [9] is: 30 min preincubation, room temperature, tested 0.025-25 μM, Inact. = no inhibition at highest concentration.
Where [10] appears, read: [IC50 for Trypsin/IC50 for other enzyme]×100, lower = more trypsin selective.

T2 sequence (P08709 213-466 limits assumed): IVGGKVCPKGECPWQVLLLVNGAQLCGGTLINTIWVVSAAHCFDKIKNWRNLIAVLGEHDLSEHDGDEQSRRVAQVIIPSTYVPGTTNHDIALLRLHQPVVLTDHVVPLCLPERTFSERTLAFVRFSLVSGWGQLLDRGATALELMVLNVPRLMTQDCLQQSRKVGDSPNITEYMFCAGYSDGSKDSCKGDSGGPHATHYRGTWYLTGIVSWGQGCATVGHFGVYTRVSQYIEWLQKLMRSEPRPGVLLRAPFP
T2 sequence (P08709 61-212 partner limits assumed): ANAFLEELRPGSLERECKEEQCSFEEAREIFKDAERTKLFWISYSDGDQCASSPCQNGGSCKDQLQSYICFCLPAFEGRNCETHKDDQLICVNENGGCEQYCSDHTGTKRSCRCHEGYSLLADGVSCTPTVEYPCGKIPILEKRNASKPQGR
T2 sequence (P13726 33-295 partner): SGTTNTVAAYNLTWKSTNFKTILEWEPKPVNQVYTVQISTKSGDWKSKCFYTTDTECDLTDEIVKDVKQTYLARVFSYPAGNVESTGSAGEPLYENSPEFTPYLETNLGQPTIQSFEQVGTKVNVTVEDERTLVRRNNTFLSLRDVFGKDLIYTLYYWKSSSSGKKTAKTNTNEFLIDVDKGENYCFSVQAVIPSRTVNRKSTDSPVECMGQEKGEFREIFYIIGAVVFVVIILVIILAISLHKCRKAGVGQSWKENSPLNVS
plasmin, sequence (P00747 581-810 limits assumed): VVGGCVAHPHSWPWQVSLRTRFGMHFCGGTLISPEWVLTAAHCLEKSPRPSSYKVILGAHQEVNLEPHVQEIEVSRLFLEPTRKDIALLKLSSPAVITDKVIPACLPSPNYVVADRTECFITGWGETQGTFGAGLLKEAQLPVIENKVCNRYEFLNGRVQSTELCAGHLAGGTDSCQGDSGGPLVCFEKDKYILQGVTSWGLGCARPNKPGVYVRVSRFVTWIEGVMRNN
plasmin, sequence (P00747 97-580 partner limits assumed): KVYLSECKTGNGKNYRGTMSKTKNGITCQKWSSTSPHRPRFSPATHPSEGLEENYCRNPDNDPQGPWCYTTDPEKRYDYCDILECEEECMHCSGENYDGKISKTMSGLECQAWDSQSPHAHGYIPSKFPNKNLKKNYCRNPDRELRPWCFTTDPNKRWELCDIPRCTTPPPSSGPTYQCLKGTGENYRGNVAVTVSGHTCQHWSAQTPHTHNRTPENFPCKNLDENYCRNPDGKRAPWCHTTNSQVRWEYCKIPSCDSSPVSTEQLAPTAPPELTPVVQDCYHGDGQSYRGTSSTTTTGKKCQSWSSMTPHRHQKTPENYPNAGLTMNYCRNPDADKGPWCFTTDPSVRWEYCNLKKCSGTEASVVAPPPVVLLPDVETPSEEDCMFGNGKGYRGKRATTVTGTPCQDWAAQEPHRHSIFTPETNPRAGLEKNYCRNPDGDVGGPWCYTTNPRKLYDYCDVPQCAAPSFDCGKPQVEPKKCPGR
recombinant tissue plasminogen activator, sequence (P00750 36-562): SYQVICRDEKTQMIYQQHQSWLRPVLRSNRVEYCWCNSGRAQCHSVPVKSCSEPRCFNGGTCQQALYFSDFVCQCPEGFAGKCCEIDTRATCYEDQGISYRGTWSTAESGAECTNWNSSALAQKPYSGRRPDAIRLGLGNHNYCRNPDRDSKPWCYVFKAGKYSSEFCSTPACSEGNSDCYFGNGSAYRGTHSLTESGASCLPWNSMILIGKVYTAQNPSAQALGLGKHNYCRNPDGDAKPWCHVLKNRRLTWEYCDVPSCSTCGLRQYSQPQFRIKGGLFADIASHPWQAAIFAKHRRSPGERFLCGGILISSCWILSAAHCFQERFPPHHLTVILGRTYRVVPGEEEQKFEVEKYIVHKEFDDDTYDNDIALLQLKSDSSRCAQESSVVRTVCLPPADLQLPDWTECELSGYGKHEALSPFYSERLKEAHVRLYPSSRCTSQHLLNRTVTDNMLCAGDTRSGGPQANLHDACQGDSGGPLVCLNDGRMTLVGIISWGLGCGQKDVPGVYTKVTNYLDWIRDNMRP
T5 sequence (P03951 388-625 limits assumed): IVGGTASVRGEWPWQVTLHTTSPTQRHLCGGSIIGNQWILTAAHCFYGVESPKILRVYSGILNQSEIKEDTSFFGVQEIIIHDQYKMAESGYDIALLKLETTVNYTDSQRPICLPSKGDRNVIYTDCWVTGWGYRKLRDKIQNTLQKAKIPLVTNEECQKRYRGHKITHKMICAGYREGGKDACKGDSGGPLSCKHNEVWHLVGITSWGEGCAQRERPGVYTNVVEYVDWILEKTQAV
T5 sequence (P03951 19-387 partner limits assumed): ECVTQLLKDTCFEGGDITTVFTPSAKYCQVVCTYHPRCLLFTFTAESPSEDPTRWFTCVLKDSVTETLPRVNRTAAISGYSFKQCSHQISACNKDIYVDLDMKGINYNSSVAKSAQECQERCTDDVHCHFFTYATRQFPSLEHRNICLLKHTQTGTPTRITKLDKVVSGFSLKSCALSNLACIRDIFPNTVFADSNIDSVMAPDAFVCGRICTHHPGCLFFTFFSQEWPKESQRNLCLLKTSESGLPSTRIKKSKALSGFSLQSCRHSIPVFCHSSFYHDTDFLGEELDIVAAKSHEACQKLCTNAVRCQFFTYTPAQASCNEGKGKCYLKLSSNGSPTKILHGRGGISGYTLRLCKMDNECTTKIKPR
T1 sequence (P03952 391-638 limits assumed): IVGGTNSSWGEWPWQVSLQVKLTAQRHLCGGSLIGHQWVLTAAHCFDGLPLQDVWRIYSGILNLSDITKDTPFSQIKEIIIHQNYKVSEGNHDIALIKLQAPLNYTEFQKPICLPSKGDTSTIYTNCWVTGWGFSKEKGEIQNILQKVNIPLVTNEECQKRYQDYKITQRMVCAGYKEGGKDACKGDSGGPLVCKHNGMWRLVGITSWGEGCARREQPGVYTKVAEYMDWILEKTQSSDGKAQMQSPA
T1 sequence (P03952 20-390 partner limits assumed): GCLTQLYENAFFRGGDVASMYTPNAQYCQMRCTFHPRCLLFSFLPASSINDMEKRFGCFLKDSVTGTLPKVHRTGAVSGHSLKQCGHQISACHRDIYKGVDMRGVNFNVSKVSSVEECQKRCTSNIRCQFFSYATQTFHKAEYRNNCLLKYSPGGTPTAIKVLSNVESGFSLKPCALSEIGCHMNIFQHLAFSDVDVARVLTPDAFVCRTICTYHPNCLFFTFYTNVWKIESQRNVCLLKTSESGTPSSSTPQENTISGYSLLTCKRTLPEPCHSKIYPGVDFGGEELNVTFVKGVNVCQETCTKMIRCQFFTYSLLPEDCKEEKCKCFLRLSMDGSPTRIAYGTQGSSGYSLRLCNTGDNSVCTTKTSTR

As to `CC(C)(C)OC(=O)N[C@@H](CC(=O)O)C(=O)N1CCC[C@H]1C(=O)N[C@H](C=O)CCCNC(=N)N` [Compound 9, N-t-butyloxycarbonyl-L-Asp-L-Pro-L-argininal] (Boc-Asp-Pro-Arg-aldehyde), the inhibition constant Ki in assay [1] stood at 0.00045 µM. The IC50 was found to be 17 µM in assay [2] (setting [9]); 25 µM in assay [4] (setting [9]); 1.4 µM in assay [6] (setting [9]); 17 µM in assay [7] (setting [9]); 12 µM in assay [8] (setting [9]). The “Calculated % Selectivity Kallikrein” value in assay [2] (setting [10]) is recorded as 0.08%. The “IC50 VIIA” value in assay [3] (setting [9]) was “Inact”. In addition, the “Calculated % Selectivity VIIa” value in assay [3] (setting [10]) was 0%. Also, in assay [4] (setting [10]), the “Calculated % Selectivity UK” value was 0.06%. The “IC50 tPA” value in assay [5] (setting [9]) is “Inact”. Further, the “Calculated % Selectivity tPA” value in assay [5] (setting [10]) is 0%. Also, the “Calculated % Selectivity Plasmin” value in assay [6] (setting [10]) is listed as 1%. Further, the “Calculated % Selectivity Thrombin” value in assay [7] (setting [10]) is given as 0.08%. The “Calculated % Selectivity XIa” value in assay [8] (setting [10]) is 0.12%.
